In US11098054B2, “Englerin derivatives for treatment of cancer” (The United States of America,as represented by the …, priority 2017, dated 2021):

Legend:
Type in all cases: cell-based
[1] = system: cancer cell lines within the NCI 60 cell assay; experiment: NCI 60 cell assay, cancer cell line panel; details: Homo sapiens, average over the nine cell lines of Table 1, read-out: Average GI-50
Description: (§1) Samples containing exemplary compounds of formulas (Ia)-(Ig) were tested in the standard National Cancer Institute 60-cell line protocol. First, they were tested against all 60 cell lines in a single final concentration of 10 micromolar. Then, they were separately tested in five 10-fold dilutions. The drug exposure was two days, with an SRB endpoint.

HS 578T = experiment: NCI 60-cell line protocol, HS 578T (breast); details: Homo sapiens, 48 h, two days drug exposure, SRB endpoint, read-out: GI-50 value
Description: as §1

A498 = experiment: NCI 60-cell line protocol, A498 (renal); details: Homo sapiens, 48 h, two days drug exposure, SRB endpoint, read-out: GI-50 value
Description: as §1

786-0 = experiment: NCI 60-cell line protocol, 786-0 (renal); details: Homo sapiens, 48 h, two days drug exposure, SRB endpoint, read-out: GI-50 value
Description: as §1

ACHN = experiment: NCI 60-cell line protocol, ACHN (renal); details: Homo sapiens, 48 h, two days drug exposure, SRB endpoint, read-out: GI-50 value
Description: as §1

SN12C = experiment: NCI 60-cell line protocol, SN12C (renal); details: Homo sapiens, 48 h, two days drug exposure, SRB endpoint, read-out: GI-50 value
Description: as §1

RXF 393 = experiment: NCI 60-cell line protocol, RXF 393 (renal); details: Homo sapiens, 48 h, two days drug exposure, SRB endpoint, read-out: GI-50 value
Description: as §1

UO-31 = experiment: NCI 60-cell line protocol, UO-31 (renal); details: Homo sapiens, 48 h, two days drug exposure, SRB endpoint, read-out: GI-50 value
Description: as §1

OVCAR-8 = experiment: NCI 60-cell line protocol, OVCAR-8 (ovarian); details: Homo sapiens, 48 h, two days drug exposure, SRB endpoint, read-out: GI-50 value
Description: as §1

BT-549 = experiment: NCI 60-cell line protocol, BT-549 (breast); details: Homo sapiens, 48 h, two days drug exposure, SRB endpoint, read-out: GI-50 value
Description: as §1

Compound | GI50 [1] | GI50 (HS 578T) | GI50 (A498) | GI50 (786-0) | GI50 (ACHN) | GI50 (SN12C) | GI50 (RXF 393) | GI50 (UO-31) | GI50 (OVCAR-8) | GI50 (BT-549)
C[C@@H]1CC[C@@H]2C1[C@H](OC(=O)/C=C/c1ccccc1)C1(C3CCCCC3)C[C@@H](NC(=O)CO)C2(C)O1 (stereo partly shown) [(Ia)] | 8030 nM | 2820 nM | 2190 nM | 14800 nM | 3470 nM | 11500 nM | 3310 nM | 4790 nM | 16200 nM | 13200 nM
C[C@@H]1CC[C@@H]2C1[C@H](OC(=O)/C=C/c1ccccc1)[C@]1(C3CCCCC3)C[C@@H](OC(=O)CO)[C@@]2(C)O1 (stereo partly shown) [(Ib)] | 217 nM | 24 nM | 19 nM | 1180 nM | 10 nM | 85 nM | 78 nM | 15 nM | 513 nM | 34 nM
C[C@@H]1CC[C@@H]2C1[C@H](OC(=O)/C=C/c1ccccc1)[C@]1(c3ccccc3)C[C@@H](OC(=O)CO)[C@@]2(C)O1 (stereo partly shown) [(Ic)] | 2260 nM | 112 nM | 191 nM | 11700 nM | 178 nM | 537 nM | 251 nM | 155 nM | 6760 nM | 407 nM
CC1CC[C@@H]2C1[C@H](OC(=O)/C=C/C1CCCCC1)[C@]1(C3CCCCC3)C[C@@H](OC(=O)CO)[C@@]2(C)O1 (stereo partly shown) [(Id)] | 2550 nM | 16 nM | 21 nM | 12000 nM | 22 nM | 32 nM | 34 nM | 29 nM | 10700 nM | 55 nM
C/C(=C\C(=O)O[C@H]1C2C(C)CC[C@H]2[C@]2(C)O[C@@]1(C1CCCCC1)C[C@H]2OC(=O)CO)c1ccccc1 (stereo partly shown) [(Ie)] | 1080 nM | 10 nM | 16 nM | 5130 nM | 15 nM | 23 nM | 79 nM | 62 nM | 4270 nM | 120 nM
CC1CC[C@@H]2C1[C@H](OC(=O)c1ccc3ccccc3c1)[C@]1(C3CCCCC3)C[C@@H](OC(=O)CO)[C@@]2(C)O1 (stereo partly shown) [(If)] | 1250 nM | 23 nM | 19 nM | 5370 nM | 19 nM | 52 nM | 71 nM | 40 nM | 5620 nM | 71 nM
Cc1c(C(=O)O[C@H]2C3C(C)CC[C@H]3[C@]3(C)O[C@@]2(C2CCCCC2)C[C@H]3OC(=O)CO)ccc2ccccc12 (stereo partly shown) [(Ig)] | 2130 nM | 17 nM | 17 nM | 6460 nM | 59 nM | 158 nM | 166 nM | 407 nM | 6610 nM | 5250 nM
